The results in this text go back to patent US20250195416A1, “DISSOLVABLE POLYMERIC OCULAR INSERT FOR DRUGS DELIVERY” (Alcon Inc., priority 2023, published 2025).

The data set can be described thus: In vitro release of olopatadine from polymer gel films (USP Apparatus 7, HPLC-UV). Format: physicochemical. Conditions: FIGS. 1A and 1B. As to the method: Release of olopatadine from polymer gel films was studied in vitro using water or phosphate buffered saline (PBS) as the dissolution media. Dissolution was performed using USP Apparatus 7 and samples were collected by its autosampler. HPLC—with UV-vis detector was used to measure component concentration during dissolution samples at different time points. […] Olopatadine HCl remains as a zwitterion at physiological pH due to the negatively charged carboxylic group and positively charged tertiary amino group on the molecule, therefore possible mechanism of API release from the gel films into dissolution media is through ion exchange. HA in gel films may complex with olopatadine through ionic interaction. […] Dissolution media plays a main role in the release profiles, as ionic bonding occurred between HA and Olopatadine. Ionic polymer provides some prolong release. Diffusion is believed to be the main release mechanism. PBS: phosphate-buffered saline pH 7.2; DI water: deionized water.

For `CN(C)CC/C=C1/c2ccccc2COc2ccc(CC(=O)O)cc21.Cl` [olopatadine, 11-[(Z)-3-(Dimethylamino)propylidene]-6-11-dihydrodibenz[b,e] oxepin-2-acetic acid hydrochloride], for the setting “dissolution media PBS pH 7.2 or DI water”, the “Olopatadine release rate, PBS versus water” value is recorded as “faster in PBS than in water”. Also, the “Burst release of olopatadine” value (water and PBS) is given as “no burst release”.
